Experimental data published in ChEMBL document CHEMBL4507264, “Data for DCP probe BAY-7598” (2021).

Legend:
[1] = target: Mitogen-activated protein kinase 10 (Homo sapiens) (UniProt P53779); conditions: Compound concentration 1000.0 nM
[2] = target: Protein-tyrosine kinase 2-beta (Homo sapiens) (UniProt Q14289); conditions: Compound concentration 1000.0 nM
[3] = target: SRSF protein kinase 1 (Homo sapiens) (UniProt Q96SB4); conditions: Compound concentration 1000.0 nM
[4] = target: NT-3 growth factor receptor (Homo sapiens) (UniProt Q16288); conditions: Compound concentration 1000.0 nM
[5] = target: Serine/threonine-protein kinase TAO3 (Homo sapiens) (UniProt Q9H2K8); conditions: Compound concentration 1000.0 nM
[6] = target: Serine/threonine-protein kinase PLK3 (Homo sapiens) (UniProt Q9H4B4); conditions: Compound concentration 1000.0 nM
[7] = target: 1-phosphatidylinositol 3-phosphate 5-kinase (Homo sapiens) (UniProt Q9Y2I7); conditions: Compound concentration 1000.0 nM
[8] = target: Cyclin-dependent kinase 7 (Homo sapiens) (UniProt P50613); conditions: Compound concentration 1000.0 nM
[9] = target: Muscarinic acetylcholine receptor M3 (Homo sapiens) (UniProt P20309); conditions: Compound concentration 10.0 uM
[10] = target: Platelet-derived growth factor receptor alpha (Homo sapiens) (UniProt P16234); conditions: Compound concentration 1000.0 nM
[11] = target: Interleukin-1 receptor-associated kinase 3 (Homo sapiens) (UniProt Q9Y616); conditions: Compound concentration 1000.0 nM
[12] = target: Serine/threonine-protein kinase OSR1 (Homo sapiens) (UniProt O95747); conditions: Compound concentration 1000.0 nM
[13] = target: Serine/threonine-protein kinase SBK1 (Homo sapiens) (UniProt Q52WX2); conditions: Compound concentration 1000.0 nM
[14] = system: Epidermal growth factor receptor (Homo sapiens), P00533 [L861Q]; conditions: Compound concentration 1000.0 nM
[15] = target: Mitogen-activated protein kinase kinase kinase 15 (Homo sapiens) (UniProt Q6ZN16); conditions: Compound concentration 1000.0 nM
[16] = target: Serine/threonine-protein kinase DCLK3 (Homo sapiens) (UniProt Q9C098); conditions: Compound concentration 1000.0 nM
[17] = target: Serine/threonine-protein kinase MARK2 (Homo sapiens) (UniProt Q7KZI7); conditions: Compound concentration 1000.0 nM
[18] = target: cAMP-dependent protein kinase catalytic subunit PRKX (Homo sapiens) (UniProt P51817); conditions: Compound concentration 1000.0 nM
[19] = system: Receptor-type tyrosine-protein kinase FLT3 (Homo sapiens), P36888 [UNDEFINED MUTATION]; conditions: Compound concentration 1000.0 nM
[20] = target: Wee1-like protein kinase 2 (Homo sapiens) (UniProt P0C1S8); conditions: Compound concentration 1000.0 nM
[21] = target: Sodium-dependent serotonin transporter (Homo sapiens) (UniProt P31645); conditions: Compound concentration 10.0 uM
[22] = target: Cyclin-dependent kinase 19 (Homo sapiens) (UniProt Q9BWU1); conditions: Compound concentration 1000.0 nM
[23] = target: Serine/threonine-protein kinase TBK1 (Homo sapiens) (UniProt Q9UHD2); conditions: Compound concentration 1000.0 nM
[24] = target: Serine/threonine-protein kinase BRSK2 (Homo sapiens) (UniProt Q8IWQ3); conditions: Compound concentration 1000.0 nM
[25] = target: Alpha-2B adrenergic receptor (Homo sapiens) (UniProt P18089); conditions: Compound concentration 10.0 uM
[26] = system: Epidermal growth factor receptor (Homo sapiens), P00533 [UNDEFINED MUTATION]; conditions: Compound concentration 1000.0 nM
[27] = target: Fibroblast growth factor receptor 4 (Homo sapiens) (UniProt P22455); conditions: Compound concentration 1000.0 nM
[28] = target: Serine/threonine-protein kinase Nek7 (Homo sapiens) (UniProt Q8TDX7); conditions: Compound concentration 1000.0 nM
[29] = target: 5-hydroxytryptamine receptor 7 (Homo sapiens) (UniProt P34969); conditions: Compound concentration 10.0 uM
[30] = target: cAMP-dependent protein kinase catalytic subunit alpha (Homo sapiens) (UniProt P17612); conditions: Compound concentration 1000.0 nM
[31] = target: Protein kinase C theta type (Homo sapiens) (UniProt Q04759); conditions: Compound concentration 1000.0 nM
[32] = target: 5'-AMP-activated protein kinase catalytic subunit alpha-2 (Homo sapiens) (UniProt P54646); conditions: Compound concentration 1000.0 nM
[33] = target: Ribosomal protein S6 kinase alpha-3 (Homo sapiens) (UniProt P51812); conditions: Compound concentration 1000.0 nM
[34] = target: Bone morphogenetic protein receptor type-1B (Homo sapiens) (UniProt O00238); conditions: Compound concentration 1000.0 nM
[35] = target: Beta-2 adrenergic receptor (Homo sapiens) (UniProt P07550); conditions: Compound concentration 10.0 uM
[36] = system: Receptor-type tyrosine-protein kinase FLT3 (Homo sapiens), P36888 [UNDEFINED MUTATION]; conditions: Compound concentration 1000.0 nM; remark: listed apart in the source
[37] = target: Tyrosine-protein kinase JAK2 (Homo sapiens) (UniProt O60674); conditions: Compound concentration 1000.0 nM
[38] = target: Mast/stem cell growth factor receptor Kit (Homo sapiens) (UniProt P10721); conditions: Compound concentration 1000.0 nM
[39] = target: 5-hydroxytryptamine receptor 1B (Homo sapiens) (UniProt P28222); conditions: Compound concentration 10.0 uM
[40] = target: MAP kinase-interacting serine/threonine-protein kinase 1 (Homo sapiens) (UniProt Q9BUB5); conditions: Compound concentration 1000.0 nM
[41] = target: Dual specificity testis-specific protein kinase 1 (Homo sapiens) (UniProt Q15569); conditions: Compound concentration 1000.0 nM
[42] = target: Serine/threonine-protein kinase tousled-like 1 (Homo sapiens) (UniProt Q9UKI8); conditions: Compound concentration 1000.0 nM
[43] = system: Tyrosine-protein kinase ABL1 (Homo sapiens), P00519 [F317L]; conditions: Compound concentration 1000.0 nM
[44] = target: Dual specificity protein kinase CLK1 (Homo sapiens) (UniProt P49759); conditions: Compound concentration 1000.0 nM
[45] = system: Tyrosine-protein kinase ABL1 (Homo sapiens), P00519 [T315I]; conditions: Compound concentration 1000.0 nM

Chain of Receptor-type tyrosine-protein kinase FLT3 (Homo sapiens), P36888 [UNDEFINED MUTATION] (P36888 whole entry, looked up, change not shown): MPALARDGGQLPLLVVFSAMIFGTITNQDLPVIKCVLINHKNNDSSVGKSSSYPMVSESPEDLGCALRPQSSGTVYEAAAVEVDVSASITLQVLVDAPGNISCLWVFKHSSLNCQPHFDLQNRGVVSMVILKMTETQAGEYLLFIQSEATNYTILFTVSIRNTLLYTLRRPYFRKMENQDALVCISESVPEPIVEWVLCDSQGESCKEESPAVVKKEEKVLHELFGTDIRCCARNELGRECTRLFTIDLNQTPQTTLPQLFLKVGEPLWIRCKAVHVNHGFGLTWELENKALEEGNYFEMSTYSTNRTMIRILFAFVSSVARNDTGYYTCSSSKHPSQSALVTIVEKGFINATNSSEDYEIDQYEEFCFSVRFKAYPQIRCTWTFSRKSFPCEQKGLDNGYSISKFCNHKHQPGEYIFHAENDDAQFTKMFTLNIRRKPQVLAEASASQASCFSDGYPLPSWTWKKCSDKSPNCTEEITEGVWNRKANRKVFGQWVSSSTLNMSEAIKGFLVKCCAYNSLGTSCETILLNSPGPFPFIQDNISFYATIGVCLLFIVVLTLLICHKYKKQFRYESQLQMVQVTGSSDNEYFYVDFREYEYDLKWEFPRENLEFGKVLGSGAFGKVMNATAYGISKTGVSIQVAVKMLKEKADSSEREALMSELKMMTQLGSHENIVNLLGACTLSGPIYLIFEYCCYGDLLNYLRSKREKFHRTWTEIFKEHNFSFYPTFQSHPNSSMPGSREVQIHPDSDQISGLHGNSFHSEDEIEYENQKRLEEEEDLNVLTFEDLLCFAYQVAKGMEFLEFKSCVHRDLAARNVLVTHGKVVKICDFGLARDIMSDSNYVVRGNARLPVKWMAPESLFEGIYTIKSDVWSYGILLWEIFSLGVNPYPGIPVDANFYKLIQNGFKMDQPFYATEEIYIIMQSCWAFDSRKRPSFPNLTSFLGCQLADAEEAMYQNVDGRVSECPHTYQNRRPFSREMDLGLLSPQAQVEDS
Chain of Serine/threonine-protein kinase OSR1 (Homo sapiens) (O95747 2-527 limits assumed): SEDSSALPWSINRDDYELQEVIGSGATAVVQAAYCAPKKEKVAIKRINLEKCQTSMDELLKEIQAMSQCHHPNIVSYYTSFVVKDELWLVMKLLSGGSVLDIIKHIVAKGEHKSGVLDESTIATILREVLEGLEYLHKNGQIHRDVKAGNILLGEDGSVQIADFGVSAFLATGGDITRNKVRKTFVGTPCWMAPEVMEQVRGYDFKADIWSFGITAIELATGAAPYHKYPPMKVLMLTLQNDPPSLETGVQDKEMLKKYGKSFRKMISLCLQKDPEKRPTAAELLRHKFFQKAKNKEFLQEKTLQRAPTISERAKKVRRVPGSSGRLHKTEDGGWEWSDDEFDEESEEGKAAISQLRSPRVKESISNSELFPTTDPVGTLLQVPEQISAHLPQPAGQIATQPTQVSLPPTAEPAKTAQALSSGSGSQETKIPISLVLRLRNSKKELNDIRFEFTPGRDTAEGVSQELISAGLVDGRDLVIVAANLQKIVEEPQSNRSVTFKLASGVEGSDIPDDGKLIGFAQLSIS
Chain of Dual specificity protein kinase CLK1 (Homo sapiens) (P49759 whole entry, looked up): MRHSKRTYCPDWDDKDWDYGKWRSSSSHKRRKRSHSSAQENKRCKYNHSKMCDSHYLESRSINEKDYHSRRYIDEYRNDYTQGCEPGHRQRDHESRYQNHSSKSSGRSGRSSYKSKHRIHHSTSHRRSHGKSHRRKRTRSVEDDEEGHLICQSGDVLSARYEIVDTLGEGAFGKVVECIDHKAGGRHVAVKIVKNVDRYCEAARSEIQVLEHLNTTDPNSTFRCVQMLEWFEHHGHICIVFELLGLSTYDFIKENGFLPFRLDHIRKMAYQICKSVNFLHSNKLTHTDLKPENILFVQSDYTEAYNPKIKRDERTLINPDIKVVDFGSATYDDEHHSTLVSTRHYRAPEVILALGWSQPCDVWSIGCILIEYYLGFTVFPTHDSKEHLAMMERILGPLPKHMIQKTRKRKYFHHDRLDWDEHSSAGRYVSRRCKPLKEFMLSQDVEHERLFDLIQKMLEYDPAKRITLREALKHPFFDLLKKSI
Chain of Fibroblast growth factor receptor 4 (Homo sapiens) (P22455 22-802 limits assumed): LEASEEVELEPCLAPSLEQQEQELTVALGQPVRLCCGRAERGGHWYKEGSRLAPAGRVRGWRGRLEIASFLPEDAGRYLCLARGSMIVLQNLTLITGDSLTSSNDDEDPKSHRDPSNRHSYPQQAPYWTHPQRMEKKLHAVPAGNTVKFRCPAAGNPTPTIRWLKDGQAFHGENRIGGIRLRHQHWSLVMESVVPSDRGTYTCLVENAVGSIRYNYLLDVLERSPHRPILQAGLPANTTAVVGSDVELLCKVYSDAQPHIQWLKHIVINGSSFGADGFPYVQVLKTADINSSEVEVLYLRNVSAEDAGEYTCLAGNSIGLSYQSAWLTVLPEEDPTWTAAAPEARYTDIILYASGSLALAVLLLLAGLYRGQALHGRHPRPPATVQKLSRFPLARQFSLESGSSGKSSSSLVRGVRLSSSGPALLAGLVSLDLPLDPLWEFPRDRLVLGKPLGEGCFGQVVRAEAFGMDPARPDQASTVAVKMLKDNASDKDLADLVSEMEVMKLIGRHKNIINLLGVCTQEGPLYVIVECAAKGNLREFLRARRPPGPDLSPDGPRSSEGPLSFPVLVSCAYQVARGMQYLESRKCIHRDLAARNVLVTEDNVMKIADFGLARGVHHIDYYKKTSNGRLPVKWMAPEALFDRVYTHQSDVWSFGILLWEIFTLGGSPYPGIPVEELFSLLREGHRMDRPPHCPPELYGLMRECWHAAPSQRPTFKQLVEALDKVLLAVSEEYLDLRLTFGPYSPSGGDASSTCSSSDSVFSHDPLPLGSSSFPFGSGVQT
Chain of 5-hydroxytryptamine receptor 7 (Homo sapiens) (P34969 whole entry): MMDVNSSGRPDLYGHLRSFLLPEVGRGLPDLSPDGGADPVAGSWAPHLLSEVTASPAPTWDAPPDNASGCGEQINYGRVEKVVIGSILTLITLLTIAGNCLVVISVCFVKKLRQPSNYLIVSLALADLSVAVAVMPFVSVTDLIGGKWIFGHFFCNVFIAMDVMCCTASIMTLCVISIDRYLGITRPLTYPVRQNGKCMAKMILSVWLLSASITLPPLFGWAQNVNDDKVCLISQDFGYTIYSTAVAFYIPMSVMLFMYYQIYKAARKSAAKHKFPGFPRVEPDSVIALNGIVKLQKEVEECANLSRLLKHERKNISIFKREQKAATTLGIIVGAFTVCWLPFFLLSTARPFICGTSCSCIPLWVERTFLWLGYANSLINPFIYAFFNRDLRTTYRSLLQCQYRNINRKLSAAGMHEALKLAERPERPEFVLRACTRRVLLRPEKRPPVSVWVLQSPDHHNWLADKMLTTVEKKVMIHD
Chain of Serine/threonine-protein kinase BRSK2 (Homo sapiens) (Q8IWQ3 whole entry): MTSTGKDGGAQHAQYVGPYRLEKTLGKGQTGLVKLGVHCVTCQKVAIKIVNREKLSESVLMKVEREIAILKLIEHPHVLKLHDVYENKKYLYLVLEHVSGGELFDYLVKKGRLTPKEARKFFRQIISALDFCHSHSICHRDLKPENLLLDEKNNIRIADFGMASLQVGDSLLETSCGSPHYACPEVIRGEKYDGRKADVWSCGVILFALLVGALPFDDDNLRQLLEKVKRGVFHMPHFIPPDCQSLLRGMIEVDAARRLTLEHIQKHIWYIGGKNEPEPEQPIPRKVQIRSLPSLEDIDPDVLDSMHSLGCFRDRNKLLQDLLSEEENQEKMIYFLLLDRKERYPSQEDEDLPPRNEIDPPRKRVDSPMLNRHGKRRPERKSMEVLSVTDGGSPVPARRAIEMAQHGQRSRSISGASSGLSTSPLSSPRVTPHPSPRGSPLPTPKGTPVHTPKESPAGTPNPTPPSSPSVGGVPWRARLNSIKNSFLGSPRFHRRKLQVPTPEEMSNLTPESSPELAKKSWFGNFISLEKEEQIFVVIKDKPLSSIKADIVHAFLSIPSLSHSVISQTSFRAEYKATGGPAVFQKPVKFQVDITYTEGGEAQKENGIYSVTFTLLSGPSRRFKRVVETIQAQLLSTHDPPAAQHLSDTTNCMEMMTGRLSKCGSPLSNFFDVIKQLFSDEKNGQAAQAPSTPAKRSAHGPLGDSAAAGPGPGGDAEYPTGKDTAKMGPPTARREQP
Chain of Alpha-2B adrenergic receptor (Homo sapiens) (P18089 whole entry): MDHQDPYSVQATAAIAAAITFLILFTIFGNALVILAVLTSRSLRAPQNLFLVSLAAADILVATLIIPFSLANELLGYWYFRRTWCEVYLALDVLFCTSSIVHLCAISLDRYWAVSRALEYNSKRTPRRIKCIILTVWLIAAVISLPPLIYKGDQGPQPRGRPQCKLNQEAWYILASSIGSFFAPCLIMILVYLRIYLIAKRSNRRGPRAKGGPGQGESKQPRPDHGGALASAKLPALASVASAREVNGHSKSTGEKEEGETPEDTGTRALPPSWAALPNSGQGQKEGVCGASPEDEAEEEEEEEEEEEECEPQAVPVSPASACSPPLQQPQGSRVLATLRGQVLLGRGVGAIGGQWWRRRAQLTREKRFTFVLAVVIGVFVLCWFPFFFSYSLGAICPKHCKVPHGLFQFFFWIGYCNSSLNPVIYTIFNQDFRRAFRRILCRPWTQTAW
Chain of Cyclin-dependent kinase 7 (Homo sapiens) (P50613 whole entry): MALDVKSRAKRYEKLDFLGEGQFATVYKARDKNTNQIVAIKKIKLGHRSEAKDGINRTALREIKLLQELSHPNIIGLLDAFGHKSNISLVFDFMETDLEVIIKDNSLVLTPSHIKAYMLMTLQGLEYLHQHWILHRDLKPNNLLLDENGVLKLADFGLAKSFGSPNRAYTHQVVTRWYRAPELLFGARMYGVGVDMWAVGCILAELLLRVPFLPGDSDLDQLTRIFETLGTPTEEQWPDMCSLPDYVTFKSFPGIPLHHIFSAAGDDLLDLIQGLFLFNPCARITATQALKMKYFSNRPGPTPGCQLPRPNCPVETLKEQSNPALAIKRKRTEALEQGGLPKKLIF

O=C(O)[C@@H]1[C@@H](Cn2nnc3ccccc3c2=O)CC[C@H]1C(=O)c1ccc(OCCC2CCOCC2)cc1 [BAY-694]
inactive: residual activity [1] 100% | residual activity [2] 100% | residual activity [3] 100% | residual activity [4] 86% | residual activity [5] 100% | residual activity [6] 87% | residual activity [7] 87% | residual activity [8] 86% | inhibition [9] 5.09% | residual activity [10] 100% | residual activity [11] 100% | residual activity [12] 100% | residual activity [13] 100% | residual activity [14] 58% | residual activity [15] 54% | residual activity [16] 100% | residual activity [17] 100% | residual activity [18] 100% | residual activity [19] 100% | residual activity [20] 100% | inhibition [21] 10.2% | residual activity [22] 100% | residual activity [23] 100% | residual activity [24] 100% | inhibition [25] 8.62% | residual activity [26] 87% | residual activity [27] 99% | residual activity [28] 100% | inhibition [29] -2.99% | residual activity [30] 90% | residual activity [31] 85% | residual activity [32] 100% | residual activity [33] 100% | residual activity [34] 78% | inhibition [35] 24.4% | residual activity [36] 100% | residual activity [37] 74% | residual activity [38] 89% | inhibition [39] 8.05% | residual activity [40] 93% | residual activity [41] 94% | residual activity [42] 100% | residual activity [43] 86% | residual activity [44] 98% | residual activity [45] 100%

O=C(O)[C@H]1[C@H](Cn2nnc3ccccc3c2=O)CC[C@@H]1C(=O)c1ccc(OCCC2CCOCC2)cc1 [BAY-7598]
inactive: residual activity [1] 83% | residual activity [2] 75% | residual activity [3] 79% | residual activity [4] 82% | residual activity [5] 100% | residual activity [6] 100% | residual activity [7] 72% | residual activity [8] 95% | inhibition [9] -7.32% | residual activity [10] 100% | residual activity [11] 77% | residual activity [12] 77% | residual activity [13] 68% | residual activity [14] 53% | residual activity [15] 64% | residual activity [16] 98% | residual activity [17] 100% | residual activity [18] 93% | residual activity [19] 93% | residual activity [20] 100% | inhibition [21] 13.9% | residual activity [22] 100% | residual activity [23] 94% | residual activity [24] 100% | inhibition [25] 3.34% | residual activity [26] 76% | residual activity [27] 100% | residual activity [28] 100% | inhibition [29] -3.55% | residual activity [30] 97% | residual activity [31] 80% | residual activity [32] 100% | residual activity [33] 81% | residual activity [34] 95% | inhibition [35] 8.44% | residual activity [36] 87% | residual activity [37] 75% | residual activity [38] 95% | inhibition [39] 11.5% | residual activity [40] 96% | residual activity [41] 100% | residual activity [42] 96% | residual activity [43] 75% | residual activity [44] 98% | residual activity [45] 79%
